From patent US20230110378A1, “MONOBACTAM COMPOUND AND USE THEREOF” (EVOPOINT BIOSCIENCES CO., LTD., priority 2019, published 2023)
≈ marks a conversion by molar mass, not a printed value. Read-outs that look alike come from different tables or passages of the source.

Key:
[1] = Pharmacokinetic evaluation of compounds in mice (tail vein injection); format: in vivo, Male CD-1 (ICR) mice; conditions: CD-1 (ICR), mouse, male CD-1 mice, intravenous injection, plasma; for half-life: read-out: T½ (converted); for Vd: read-out: Vss
Protocol: Male CD-1 (ICR) mice were purchased and then acclimatized in this laboratory for at least 3 days. […] Blood samples were collected from the saphenous vein at 0.0833 h, 0.25 h, 0.5 h, 1 h, 2 h, 4 h, 8 h and 24 h following the tail vein injection administration. The volume of blood collection at each time point of the blood collection was about 30 μL. The blood samples were placed in centrifuge tubes containing anticoagulant EDTA-K2 and centrifuged at 3,200 g at 4° C. for 10 min, and then the upper plasma samples were collected and preserved in a freezer at −70±10° C. for later tests.
1) To 1.5 mL centrifuge tubes were added a 6 μL aliquot of an unknown sample, a standard curve, a quality control, a dilution quality control, single blank and double blank samples.
2) Each sample (except for the double blank sample) was treated with 120 μL of IS1-containing precipitant (the double blank sample was treated with 120 μL of pure MeOH for precipitation), and the mixtures were well mixed (for at least 15 s) using a vortexer and centrifuged at 12,000 g at 4° C. for 15 min.
3) 60 μL of the supernatants were transferred to a 96-well plate and centrifuged at 4° C. at 3220 g for 5 min, and 6 p L of the supernatants were injected for LC-MS/MS quantitative analysis.
1) The 1 h-plasma samples from the 3 mice were diluted 10-fold: 2 p L of the samples were added to 18 p L of blank matrix.
2) The 0.0833 h to 0.5 h-plasma samples from the 3 mice were diluted 100-fold: 18 μL of blank matrix was added to 2 p L of the samples to obtain 10-fold diluted samples. 2 μL of the 10-fold diluted samples were added to 18 p L of blank matrix to obtain 100-fold diluted analysis samples.
LC-MS/MS analysis conditions: chromatography column: ACQUITY UPLC HSS T3 (2.1×50 mm, 1.8 μm); column temperature: 50° C.; mobile phase A: a 0.1% aqueous solution of formic acid; mobile phase B: a 0.1% solution of formic acid in acetonitrile; flowrate: 0.65 mL/min. Internal standard: verapamil (100 ng/mL)
The concentration of the compounds in plasma was measured by LC-MS/MS (LC-MS/MS-AK_Q-Trap 6500). The pharmacokinetic software WinNonlin [version: Phoenix™ WinNonlin®6.3, manufacturer: Pharsight Corporation] was used to calculate pharmacokinetic parameters (V-Noncompartmental model 201).

[2] = system: Pseudomonas aeruginosa HDBPA 5679; experiment: Minimum inhibitory concentration (broth microdilution, CLSI); format: cell-based; conditions: HDBPA5679
Protocol: (§1) 103 bacterial strains used for the minimum inhibitory concentration test were frozen in a −80° C. ULT freezer and thawed 2 days before use. A small amount of frozen microorganism bacteria were scraped using a sterile inoculating loop, streaked onto a suitable solid culture dish for inoculation, and then cultured for about 20 h at 35 t 2° C. in a normal incubator. • Proteus mirabilis HDBPM 40: MA, normal atmospheric environment • The remaining 102 strains of bacteria: TSA, normal atmospheric environment
(§2) 5-10 colonies with similar morphology were picked from the culture dish using a sterile inoculating loop and then re-streaked onto a corresponding solid culture dish. Then the dish was incubated in a normal incubator at 35 t 2° C. for about 20 h.
(§3) 5-10 single microbial colonies were picked from the solid culture dish, resuspended in 500 μL of sterile normal saline (0.9% NaCl), and adjusted to an OD600 of about 0.15 with a spectrophotometer.
(§4) The bacteria were then diluted 300-fold with 1.02×CAMHB to an inoculation concentration of 2×10^5 CFU/mL.
(§5) • There were a total of 3 assay plate patterns, one of which was used for each assay. • 8 rows of the assay plate (rows A-H) were for 8 test compounds, respectively. The highest test concentration of the compounds was 16, 32 or 64 μg/mL, and each compound was diluted 2-fold. • Growth control (GC): a medium containing microbial inoculum (1.02×CAMHB) and dimethylsulfoxide (DMSO) but no compound.
(§6) The test and reference compounds were dissolved in DMSO or H2O to prepare 6.4 mg/mL stock solutions. The stock solutions were diluted to prepare standby solutions with certain concentrations, and the volumes of the standby solutions were determined according to the experimental design. Corresponding volumes of the standby solutions were transferred to the starting wells of a dilution plate (A1-H1), and half the starting-well volume of DMSO to the other wells. Each compound was diluted 2-fold sequentially from column 1 to column 11 (e.g., transferring 30 μL of DMSO to columns 2-12 first, then pipetting 30 μL of the compounds from column 1 to column 2 and mixing them well, then pipetting 30 μL of the compounds from column 2 to column 3 and mixing them well, then pipetting 30 μL of the compounds from column 3 to column 4 and mixing them well, and so on to column 11).
(§7) 1 or 2 μL of the compounds and DMSO were transferred from the compound plate to corresponding wells of the assay plates.
(§8) 98 μL of corresponding bacterial inocula were added to the assay plates.
(§9) After addition, the assay plates were covered with sterile covers. The mixtures in the assay plates were centrifuged in a centrifuge at 800 rpm for 30 s, mixed well on a microplate shaker at 400 rpm for 1 min, and incubated in a normal incubator at 35 t 2° C. for 20-24 h.
(§10) The assay plates were placed on a plate reading device, and the speculum was adjusted to observe and record the growth condition of bacteria in each well. In the mean time, each assay plate was photographed with QCount system.
(§11) The minimum inhibitory concentration of each compound was recorded by reference to guidelines from the Clinical and Laboratory Standards Institute.
(§12) The minimum inhibitory concentrations of the compounds against experimental strains were tested in this study by reference to the medium microdilution method as indicated by the Clinical and Laboratory Standards Institute. Compounds were diluted two-fold in 96-well plates from the highest detection concentration of 16, 32 or 64 μg/mL. The bacterial inocula in the assay plates were thawed from corresponding medium plates and diluted in 1.02×CAMHB, while growth controls (GC wells) were set up in the assay plates. The minimum inhibitory concentration of each compound against different bacteria was observed and recorded after the assay plates were incubated in a normal incubator at 35 t 2° C. for about 20 h. The minimum inhibitory concentration values for the different compounds are listed in the list below.

[3] = system: Enterobacter cloacae HDBECL 30030; experiment: as above; format: cell-based; conditions: HDBECL30030
Protocol: as §1, §2, §3, §4, §5, §6, §7, §8, §9, §10, §11, §12

[4] = system: Klebsiella pneumoniae HDBKP 30006; experiment: as above; format: cell-based; conditions: HDBKP30006
Protocol: as §1, §2, §3, §4, §5, §6, §7, §8, §9, §10, §11, §12

[5] = system: Klebsiella pneumoniae HDBKP 9153; experiment: as above; format: cell-based; conditions: HDBKP9153
Protocol: as §1, §2, §3, §4, §5, §6, §7, §8, §9, §10, §11, §12

[6] = system: Klebsiella pneumoniae HDBKP 9249; experiment: as above; format: cell-based; conditions: HDBKP9249
Protocol: as §1, §2, §3, §4, §5, §6, §7, §8, §9, §10, §11, §12

[7] = system: Escherichia coli HDBEC 30016; experiment: as above; format: cell-based; conditions: HDBEC30016
Protocol: as §1, §2, §3, §4, §5, §6, §7, §8, §9, §10, §11, §12

[8] = system: Escherichia coli HDBEC 30048; experiment: as above; format: cell-based; conditions: HDBEC30048
Protocol: as §1, §2, §3, §4, §5, §6, §7, §8, §9, §10, §11, §12

[9] = system: Escherichia coli HDBEC 30008; experiment: as above; format: cell-based; conditions: HDBEC30008
Protocol: as §1, §2, §3, §4, §5, §6, §7, §8, §9, §10, §11, §12

[10] = system: Proteus mirabilis HDBPM 40; experiment: as above; format: cell-based; conditions: HDBPM40
Protocol: as §1, §2, §3, §4, §5, §6, §7, §8, §9, §10, §11, §12

[11] = system: metallo-β-lactamase-expressing Acinetobacter baumannii strain ABA-0003YK; experiment: as above; format: cell-based; conditions: read-out: MIC A. baumannii ABA-0003YK
Protocol: as §1, §2, §3, §4, §5, §6, §7, §8, §9, §10, §11, §12

| SMILES | AUC ([1]; dose 10 mg/kg) [ng·h/mL] | clearance ([1]; dose 10 mg/kg) [mL/min/kg] | half-life ([1]; dose 10 mg/kg) [min] | Vd ([1]; dose 10 mg/kg) [L/kg] | MIC [2] [µg/mL] | MIC [3] [µg/mL] | MIC [4] [µg/mL] | MIC [5] [µg/mL] | MIC [6] [µg/mL] | MIC [7] [µg/mL] | MIC [8] [µg/mL] | MIC [9] [µg/mL] | MIC [10] [µg/mL] | MIC [11] [µg/mL] | AUC ([1]; dose 5 mg/kg) [ng·h/mL] | clearance ([1]; dose 5 mg/kg) [mL/min/kg] | half-life ([1]; dose 5 mg/kg) [min] | Vd ([1]; dose 5 mg/kg) [L/kg] |
| --- | --- | --- | --- | --- | --- | --- | --- | --- | --- | --- | --- | --- | --- | --- | --- | --- | --- | --- |
| CC(C)(O/N=C(\C(=O)N[C@@H]1C(=O)N(S(=O)(=O)O)[C@@H]1CNC(=O)c1cc([C@@H]2CCN(CCNC(=O)c3ccc(O)c(O)c3Cl)C2)no1)c1csc(N)n1)C(=O)O [Compound I-35] | 8530 | 19.5 | 85.8 | 0.57 | < 4 | < 4 | < 4 | < 4 | 4 to 8 (≈ 4.83 to 9.66 µM) | < 4 | < 4 | < 4 | < 4 | – | – | – | – | – |
| CC(C)(O/N=C(\C(=O)N[C@@H]1C(=O)N(S(=O)(=O)O)[C@@H]1CNC(=O)c1cnc([C@@H]2CCN(C(=O)c3ccc(O)c(O)c3Cl)C2)s1)c1csc(N)n1)C(=O)O [Compound I-30] | – | – | – | – | < 4 | < 4 | 4 to 8 (≈ 4.99 to 9.98 µM) | < 4 | 4 to 8 (≈ 4.99 to 9.98 µM) | < 4 | < 4 | < 4 | < 4 | < 4 | – | – | – | – |
| Cc1c(C(=O)N2CC[C@@H](c3cc(C(=O)NC[C@@H]4[C@H](NC(=O)/C(=N\OC(C)(C)C(=O)O)c5csc(N)n5)C(=O)N4S(=O)(=O)O)on3)C2)n(O)c(C)c(O)c1=O [Compound I-44] | 17300 | 9.61 | 37.8 | 0.19 | < 4 | < 4 | 8 to 16 (≈ 10.1 to 20.1 µM) | < 4 | 8 to 16 (≈ 10.1 to 20.1 µM) | 4 to 8 (≈ 5.03 to 10.1 µM) | < 4 | < 4 | < 4 | – | – | – | – | – |
| C[C@H]1[C@H](NC(=O)/C(=N\OC(C)(C)C(=O)O)c2csc(N)n2)C(=O)N1S(=O)(=O)O [Aztreonam, reference compound] | – | – | – | – | > 16 | > 16 | > 16 | > 16 | > 16 | > 16 | > 16 | 8 to 16 (≈ 18.4 to 36.7 µM) | 8 to 16 (≈ 18.4 to 36.7 µM) | > 16 | – | – | – | – |
| CC(C)(O/N=C(\C(=O)N[C@@H]1C(=O)N(S(=O)(=O)O)[C@@H]1CNC(=O)c1cc([C@@H]2CCN(C(=O)c3cc(=O)c(O)cn3O)C2)no1)c1csc(N)n1)C(=O)O [Compound I-7] | – | – | – | – | < 4 | < 4 | > 16 | < 4 | > 16 | 4 to 8 (≈ 5.21 to 10.4 µM) | < 4 | < 4 | < 4 | < 4 | 4240 | 19.6 | 16.2 | 0.48 |
